Measured values as given in PMC11733953, “Identification of a Potent CDK8 Inhibitor Using Structure-Based Virtual Screening” (Journal of Chemical Information and Modeling, 2024).
pIC50: −log10 of the molar value.

Target: Cyclin-dependent kinase 8 (CDK8) (Homo sapiens, UniProt P49336)
Assay: LanthaScreen Eu kinase binding assay (TR-FRET displacement of Tracer […]), dose-response; […] inhibition at […] in 60-kinase panel

Cyclin-dependent kinase 8 (CDK8), sequence (P49336 whole entry): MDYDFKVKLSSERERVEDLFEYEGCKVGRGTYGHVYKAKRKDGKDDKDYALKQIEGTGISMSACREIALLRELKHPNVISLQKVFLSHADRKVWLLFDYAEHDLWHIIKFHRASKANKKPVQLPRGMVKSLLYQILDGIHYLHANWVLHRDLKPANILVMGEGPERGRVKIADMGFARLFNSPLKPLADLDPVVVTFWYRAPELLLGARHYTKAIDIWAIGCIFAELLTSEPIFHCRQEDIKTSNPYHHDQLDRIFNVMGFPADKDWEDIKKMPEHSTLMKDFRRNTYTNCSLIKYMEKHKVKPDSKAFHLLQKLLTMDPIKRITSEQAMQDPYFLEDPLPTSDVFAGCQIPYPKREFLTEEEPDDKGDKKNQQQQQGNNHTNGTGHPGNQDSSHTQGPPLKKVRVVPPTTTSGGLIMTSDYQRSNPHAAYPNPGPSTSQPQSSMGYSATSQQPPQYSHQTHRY
Cyclin-dependent kinase 8 (CDK8), sequence (P24863 whole entry partner): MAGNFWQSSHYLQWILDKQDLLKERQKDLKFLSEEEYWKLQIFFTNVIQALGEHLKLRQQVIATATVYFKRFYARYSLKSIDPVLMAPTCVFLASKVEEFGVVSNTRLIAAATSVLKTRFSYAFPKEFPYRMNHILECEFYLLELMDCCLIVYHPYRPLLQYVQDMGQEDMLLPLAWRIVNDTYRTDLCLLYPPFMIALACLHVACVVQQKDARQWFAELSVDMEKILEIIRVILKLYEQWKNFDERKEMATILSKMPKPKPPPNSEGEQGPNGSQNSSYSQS

pIC50: 7.30
Compound: O=C(Cc1nnc(-c2ccc3ncccc3c2)o1)NCc1ccc(F)cc1 [P162-0948]
